Results from PubChem BioAssay AID1919016 (Molecular Pharmacology Branch, DTP, NCI, 2023).

Test system: NCI-H196 complex spheroid growth, percent test/control
Experiment: Anticancer human tumor NCI-H196 cell line growth inhibition [AhR];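 also: seven days of drug exposure starting three days after plating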;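 as to viability, T/C: 100% = DMSO vehicle control wells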
Conditions: for IC50: curve of first compound; for viability, T/C: stronger effect = lower value; active = viability on the fitted dose curve at most 10% of control; inactive = the rest
Method in brief: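 Complex tumor spheroids co-cultured with HUVEC and human MSC stroma; AhR antagonists tested in combination with standard-of-care and investigational agents. Top concentration at or near clinical Cmax (else 10 microM), half-log dilutions; growth expressed as percent test/control.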

[1] = second compound 0.1 µM, first compound 0.0316 µM
[2] = second compound 0.1 µM, first compound 0.1 µM
[3] = second compound 0.1 µM, first compound 0.316 µM
[4] = second compound 0.1 µM, first compound 1 µM
[5] = second compound 0.316 µM, first compound 0.0316 µM
[6] = second compound 0.316 µM, first compound 0.1 µM
[7] = second compound 0.316 µM, first compound 0.316 µM
[8] = second compound 0.316 µM, first compound 1 µM
[9] = second compound 1 µM, first compound 0.0316 µM
[10] = second compound 1 µM, first compound 0.1 µM
[11] = second compound 1 µM, first compound 0.316 µM
[12] = second compound 1 µM, first compound 1 µM
[13] = second compound 3.16 µM, first compound 0.0316 µM
[14] = second compound 3.16 µM, first compound 0.1 µM
[15] = second compound 3.16 µM, first compound 0.316 µM
[16] = second compound 3.16 µM, first compound 1 µM
[17] = second compound 10 µM, first compound 0.0316 µM
[18] = second compound 10 µM, first compound 0.1 µM
[19] = second compound 10 µM, first compound 0.316 µM
[20] = second compound 10 µM, first compound 1 µM
[21] = second compound 0.1 µM, first compound 3.16 µM
[22] = second compound 0.1 µM, first compound 10 µM
[23] = second compound 0.316 µM, first compound 3.16 µM
[24] = second compound 0.316 µM, first compound 10 µM
[25] = second compound 1 µM, first compound 3.16 µM
[26] = second compound 1 µM, first compound 10 µM
[27] = second compound 3.16 µM, first compound 3.16 µM
[28] = second compound 3.16 µM, first compound 10 µM
[29] = second compound 10 µM, first compound 3.16 µM
[30] = second compound 10 µM, first compound 10 µM
[31] = second compound 0.1 µM, first compound 0.00949 µM
[32] = second compound 0.1 µM, first compound 0.03 µM
[33] = second compound 0.1 µM, first compound 0.0949 µM
[34] = second compound 0.1 µM, first compound 0.3 µM
[35] = second compound 0.316 µM, first compound 0.00949 µM
[36] = second compound 0.316 µM, first compound 0.03 µM
[37] = second compound 0.316 µM, first compound 0.0949 µM
[38] = second compound 0.316 µM, first compound 0.3 µM
[39] = second compound 1 µM, first compound 0.00949 µM
[40] = second compound 1 µM, first compound 0.03 µM
[41] = second compound 1 µM, first compound 0.0949 µM
[42] = second compound 1 µM, first compound 0.3 µM
[43] = second compound 3.16 µM, first compound 0.00949 µM
[44] = second compound 3.16 µM, first compound 0.03 µM
[45] = second compound 3.16 µM, first compound 0.0949 µM
[46] = second compound 3.16 µM, first compound 0.3 µM
[47] = second compound 10 µM, first compound 0.00949 µM
[48] = second compound 10 µM, first compound 0.03 µM
[49] = second compound 10 µM, first compound 0.0949 µM
[50] = second compound 10 µM, first compound 0.3 µM

CC1COCCN1c1cc(-c2ccnn2C)c2ccnc(-c3ccn[nH]3)c2n1 (stereo not given) + Cc1cncc(-c2nc(NCCc3c[nH]c4ccccc34)c3ncn(C(C)C)c3n2)c1
inactive: viability, T/C (second compound 0.1 µM, first compound 0.00316 µM) 105% | viability, T/C (second compound 0.1 µM, first compound 0.01 µM) 96.6% | viability, T/C [1] 86.5% | viability, T/C [2] 70% | viability, T/C [3] 62.4% | viability, T/C [4] 60.7% | viability, T/C (second compound 0.316 µM, first compound 0.00316 µM) 95.5% | viability, T/C (second compound 0.316 µM, first compound 0.01 µM) 94.1% | viability, T/C [5] 86.7% | viability, T/C [6] 71.2% | viability, T/C [7] 64.5% | viability, T/C [8] 52.7% | viability, T/C (second compound 1 µM, first compound 0.00316 µM) 103% | viability, T/C (second compound 1 µM, first compound 0.01 µM) 97.7% | viability, T/C [9] 96.4% | viability, T/C [10] 79.4% | viability, T/C [11] 70.9% | viability, T/C [12] 57.9% | viability, T/C (second compound 3.16 µM, first compound 0.00316 µM) 106% | viability, T/C (second compound 3.16 µM, first compound 0.01 µM) 123% | viability, T/C [13] 101% | viability, T/C [14] 88.8% | viability, T/C [15] 77.6% | viability, T/C [16] 58.2% | viability, T/C (second compound 10 µM, first compound 0.00316 µM) 68.1% | viability, T/C (second compound 10 µM, first compound 0.01 µM) 80.7% | viability, T/C [17] 75.7% | viability, T/C [18] 66% | viability, T/C [19] 80% | viability, T/C [20] 71.8%
> 1000 nM: IC50 (second compound 0.1 µM) | IC50 (second compound 0.316 µM) | IC50 (second compound 1 µM) | IC50 (second compound 3.16 µM) | IC50 (second compound 10 µM)

CC1COCCN1c1cc(C2(S(C)(=N)=O)CC2)nc(-c2ccnc3[nH]ccc23)n1 (stereo not given) + Cc1cncc(-c2nc(NCCc3c[nH]c4ccccc34)c3ncn(C(C)C)c3n2)c1
inactive: viability, T/C [1] 104% | viability, T/C [2] 103% | viability, T/C [3] 91% | viability, T/C [4] 90.1% | viability, T/C [21] 88.9% | viability, T/C [22] 74.5% | viability, T/C [5] 100% | viability, T/C [6] 101% | viability, T/C [7] 101% | viability, T/C [8] 90.3% | viability, T/C [23] 85.3% | viability, T/C [24] 64.5% | viability, T/C [9] 98.5% | viability, T/C [10] 96% | viability, T/C [11] 99.8% | viability, T/C [12] 96.9% | viability, T/C [25] 86.9% | viability, T/C [26] 73.1% | viability, T/C [13] 108% | viability, T/C [14] 103% | viability, T/C [15] 104% | viability, T/C [16] 96% | viability, T/C [27] 98.8% | viability, T/C [28] 71.9% | viability, T/C [17] 77.3% | viability, T/C [18] 96.6% | viability, T/C [19] 87.6% | viability, T/C [20] 83.7% | viability, T/C [29] 79.3% | viability, T/C [30] 76.4%
> 10000 nM: IC50 (second compound 0.1 µM) | IC50 (second compound 0.316 µM) | IC50 (second compound 1 µM) | IC50 (second compound 3.16 µM) | IC50 (second compound 10 µM)

COc1ccc([C@@H](O)c2cc(-c3ncnc4cc(N5CCOCC5)ccc34)c(F)cc2Cl)nn1 + Cc1cncc(-c2nc(NCCc3c[nH]c4ccccc34)c3ncn(C(C)C)c3n2)c1
> 10000 nM: IC50 (second compound 0.1 µM) | IC50 (second compound 0.316 µM) | IC50 (second compound 1 µM) | IC50 (second compound 3.16 µM) | IC50 (second compound 10 µM)
inactive: viability, T/C [1] 102% | viability, T/C [2] 101% | viability, T/C [3] 97% | viability, T/C [4] 91.4% | viability, T/C [21] 78.7% | viability, T/C [22] 84.7% | viability, T/C [5] 95.3% | viability, T/C [6] 99.6% | viability, T/C [7] 101% | viability, T/C [8] 97.7% | viability, T/C [23] 92.6% | viability, T/C [24] 80.7% | viability, T/C [9] 104% | viability, T/C [10] 111% | viability, T/C [11] 97.6% | viability, T/C [12] 87.3% | viability, T/C [25] 95.5% | viability, T/C [26] 84% | viability, T/C [13] 105% | viability, T/C [14] 108% | viability, T/C [15] 106% | viability, T/C [16] 94.2% | viability, T/C [27] 94% | viability, T/C [28] 94.2% | viability, T/C [17] 69.8% | viability, T/C [18] 90.4% | viability, T/C [19] 92.2% | viability, T/C [20] 77.7% | viability, T/C [29] 77.8% | viability, T/C [30] 71%

Nc1ncn(C2CC(O)C(CO)S2)c(=O)n1 (stereo not given) + Cc1cncc(-c2nc(NCCc3c[nH]c4ccccc34)c3ncn(C(C)C)c3n2)c1
inactive: viability, T/C (second compound 0.1 µM, first compound 0.000949 µM) 109% | viability, T/C (second compound 0.1 µM, first compound 0.003 µM) 112% | viability, T/C [31] 109% | viability, T/C [32] 111% | viability, T/C [33] 118% | viability, T/C [34] 116% | viability, T/C (second compound 0.316 µM, first compound 0.000949 µM) 101% | viability, T/C (second compound 0.316 µM, first compound 0.003 µM) 110% | viability, T/C [35] 113% | viability, T/C [36] 112% | viability, T/C [37] 115% | viability, T/C [38] 111% | viability, T/C (second compound 1 µM, first compound 0.000949 µM) 107% | viability, T/C (second compound 1 µM, first compound 0.003 µM) 110% | viability, T/C [39] 108% | viability, T/C [40] 116% | viability, T/C [41] 121% | viability, T/C [42] 123% | viability, T/C (second compound 3.16 µM, first compound 0.000949 µM) 118% | viability, T/C (second compound 3.16 µM, first compound 0.003 µM) 125% | viability, T/C [43] 115% | viability, T/C [44] 114% | viability, T/C [45] 116% | viability, T/C [46] 117% | viability, T/C (second compound 10 µM, first compound 0.000949 µM) 92.3% | viability, T/C (second compound 10 µM, first compound 0.003 µM) 92.9% | viability, T/C [47] 101% | viability, T/C [48] 101% | viability, T/C [49] 93.8% | viability, T/C [50] 106%
> 300 nM: IC50 (second compound 0.1 µM) | IC50 (second compound 0.316 µM) | IC50 (second compound 1 µM) | IC50 (second compound 3.16 µM) | IC50 (second compound 10 µM)

O=C(C=Cn1cnc(-c2cc(C(F)(F)F)cc(C(F)(F)F)c2)n1)NNc1cnccn1 + Cc1cncc(-c2nc(NCCc3c[nH]c4ccccc34)c3ncn(C(C)C)c3n2)c1
inactive: viability, T/C [31] 75.3% | viability, T/C [32] 65% | viability, T/C [33] 20.6% | viability, T/C [35] 73.5% | viability, T/C [36] 52.7% | viability, T/C [37] 25.1% | viability, T/C [38] 9.13% | viability, T/C [39] 71% | viability, T/C [40] 59.2% | viability, T/C [41] 27.9% | viability, T/C [42] 13% | viability, T/C [43] 80% | viability, T/C [44] 59.4% | viability, T/C [45] 22.4% | viability, T/C [46] 10.5% | viability, T/C [47] 65.2% | viability, T/C [48] 62.8%
34 nM: IC50 (second compound 0.316 µM)
active: viability, T/C [34] 8.92% | viability, T/C (second compound 0.1 µM, first compound 0.949 µM) 8.7% | viability, T/C (second compound 0.1 µM, first compound 3 µM) 5.72% | viability, T/C (second compound 0.316 µM, first compound 0.949 µM) 9.31% | viability, T/C (second compound 0.316 µM, first compound 3 µM) 8.45% | viability, T/C (second compound 1 µM, first compound 0.949 µM) 8.4% | viability, T/C (second compound 1 µM, first compound 3 µM) 7.77% | viability, T/C (second compound 3.16 µM, first compound 0.949 µM) 8.06% | viability, T/C (second compound 3.16 µM, first compound 3 µM) 8.49% | viability, T/C [49] 4.24% | viability, T/C [50] 2.39% | viability, T/C (second compound 10 µM, first compound 0.949 µM) 8.19% | viability, T/C (second compound 10 µM, first compound 3 µM) 5.29%
38.7 nM: IC50 (second compound 10 µM)
40.2 nM: IC50 (second compound 3.16 µM)
44.3 nM: IC50 (second compound 0.1 µM)
42 nM: IC50 (second compound 1 µM)
